The compounds below were run against human recombinant GPR65 (Homo sapiens, UniProt Q8IYL9) (assay: Human GPR65 cAMP HTRF antagonist assay). Conditions: not given.
Format: cell-based
Description: In one preferred embodiment, the compound prevents the increase in cytoplasmic cAMP levels expected following GPR65 activation at acidic pH. This prevention of cAMP accumulation in turn prevents downstream signalling through ICER, as described above. The “Human GPR65 cyclic adenosine monophosphate (cAMP) Homogeneous Time Resolved Fluorescence (HTRF) antagonist assay”, or simply “cAMP assay”, as described in the accompanying examples, can be used to measure the potency of GPR65 modulators, which is expressed as the concentration of compound required to reduce the increase in cAMP concentration upon GPR65 activation by 50% (i.e. an IC50).
Human GPR65 Cyclic Adenosine Monophosphate (cAMP) Homogeneous Time Resolved Fluorescence (HTRF) Antagonist Assay Procedure
IC50 data was obtained by the following procedure:
1321N1 human astrocytoma cells stably expressing human recombinant GPR65 (1321N1-hrGPR65 cells, EuroscreenFast) were cultured according to the vendor's instructions.
Compounds were tested for their ability to antagonise GPR65, through measuring the concentration of cytoplasmic cAMP following treatment of the cells at a pH of 7.2 to activate GPR65 signalling and addition of the compound to be tested. The extent to which the expected rise in cAMP concentration upon GPR65 activation was suppressed by the added compound is indicative of its potency. The assay was carried out according to EuroscreenFast assay Methodology as follows.
On the day of the assay, test compounds were added to 384-well, low volume, white microtiter plates by acoustic dispensing. KRH buffer (5 mM KCl, 1.25 mM MgSO4, 124 mM NaCl, 25 mM HEPES, 13.3 mM Glucose, 1.25 mM KH2PO4 and 1.45 mM CaCl2) was adjusted to pH 6.5, pH 7.6 and pH 8.4 by adding NaOH. 1321N1-hGPR65 cells were rapidly thawed and diluted in KRH, pH 7.6 prior to centrifugation at 300×g for 5 min and resuspension in assay buffer (KRH, pH 7.6, supplemented with 1 mM 3-isobutyl-1-methylxanthine (IBMX) and 200 μM ethylenediaminetetraacetic acid (EDTA)). Cells were added to assay plates at a density of 2,000 cells per well in a volume of 5 μl. Assay plates were briefly centrifuged at 100×g and then incubated at room temperature for 30 min. Cells were stimulated by the addition of 5 μL KRH, pH 6.5, to achieve an assay pH of 7.2, while control wells received 5 μl KRH, pH 8.4 to achieve an assay pH of 7.9. Assay plates were briefly centrifuged at 100×g and then incubated at room temperature for 30 min.
Accumulation of cAMP was detected by cAMP HTRF kit (Cisbio). d2-labeled cAMP and cryptate-labeled anti-cAMP antibody in Lysis and Detection Buffer (Cisbio) were added to assay plates, and the plates were incubated at room temperature for 1 h. HTRF measurements were performed using a Pherastar FSX instrument. Acceptor and donor emission signals were measured at 665 nm and 620 nm, respectively, and HTRF ratios were calculated as signal665 nm/signal620 nm×10^4. Data were normalised to high and low control values and fitted with 4-parameter logistic regression to determine hGPR65 IC50 values for the test compounds, which are shown in Table 1.

Sequence of human recombinant GPR65 (Q8IYL9 whole entry): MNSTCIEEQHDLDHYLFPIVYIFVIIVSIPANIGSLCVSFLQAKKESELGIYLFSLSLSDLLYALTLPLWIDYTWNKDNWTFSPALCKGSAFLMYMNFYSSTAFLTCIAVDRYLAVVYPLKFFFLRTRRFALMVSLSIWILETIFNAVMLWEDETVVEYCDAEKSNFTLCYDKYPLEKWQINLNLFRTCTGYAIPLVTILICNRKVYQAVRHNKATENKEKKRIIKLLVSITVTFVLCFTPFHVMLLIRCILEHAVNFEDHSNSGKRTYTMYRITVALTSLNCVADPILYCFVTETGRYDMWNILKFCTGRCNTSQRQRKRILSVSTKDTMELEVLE

Structure (SMILES)	IC50 [nM]
O=C(Nc1cc(Cl)c(I)cc1F)N1C2CCC1c1n[nH]c(=O)cc1C2 (racemic) [Compound 74, (±)-N-(5-Chloro-2-fluoro-4-iodophenyl)-3-oxo-3,5,6,7,8,9-hexahydro-2H-6,9-epiminocyclohepta[c]pyridazine-10-carboxamide]	< 500
O=C(Nc1ccc(Cl)c(Cl)c1)N1C2CCC1c1n[nH]c(=O)cc1C2 (racemic) [Compound 75, (±)-N-(3,4-Dichlorophenyl)-3-oxo-3,5,6,7,8,9-hexahydro-2H-6,9-epiminocyclohepta[c]pyridazine-10-carboxamide]	< 500
O=C(Nc1ccc(C(F)(F)F)c(Cl)c1)N1C2CCC1c1n[nH]c(=O)cc1C2 (racemic) [Compound 76, (±)-N-(3-Chloro-4-(trifluoromethyl)phenyl)-3-oxo-3,5,6,7,8,9-hexahydro-2H-6,9-epiminocyclohepta[c]pyridazine-10-carboxamide]	< 500
O=C(Nc1cc(Cl)c(Cl)cc1F)N1C2CCC1c1ccnnc1C2 (racemic) [Compound 84, (±)-N-(4,5-Dichloro-2-fluorophenyl)-6,7,8,9-tetrahydro-5H-5,8-epiminocyclohepta[c]pyridazine-10-carboxamide]	< 500
O=C(Nc1cc(Cl)c(Cl)cc1F)N1C2CCC1c1ncnc(F)c1C2 (racemic) [Compound 87, (±)—N-(4,5-Dichloro-2-fluorophenyl)-4-fluoro-6,7,8,9-tetrahydro-5H-6,9-epiminocyclohepta[d]pyrimidine-10-carboxamide]	< 500
C=C1c2c(ccnc2F)C2CCC1N2C(=O)Nc1cc(Cl)c(Cl)cc1F (racemic) [Compound 154, (±)—N-(4,5-Dichloro-2-fluorophenyl)-1-fluoro-9-methylene-6,7,8,9-tetrahydro-5H-5,8-epiminocyclohepta[c]pyridine-10-carboxamide]	< 500
O=C1c2c(ccnc2F)C2CCC1N2C(=O)Nc1cc(Cl)c(Cl)cc1F (racemic) [Compound 155, (±)—N-(4,5-Dichloro-2-fluorophenyl)-1-fluoro-9-oxo-6,7,8,9-tetrahydro-5H-5,8-epiminocyclohepta[c]pyridine-10-carboxamide]	< 500
O=C(Nc1cc(Cl)c(C(F)(F)F)cc1F)N1C2CCC1[C@H](F)c1c2ccnc1F (mixture of isomers) [Compound 157, (±)-(9R)—N-(5-Chloro-2-fluoro-4-(trifluoromethyl)phenyl)-1,9-difluoro-6,7,8,9-tetrahydro-5H-5,8-epiminocyclohepta[c]pyridine-10-carboxamide]	< 500
O=C(Nc1cc(Cl)c(C(F)(F)F)cc1F)N1C2CCC1C(F)(F)c1c2ccnc1F (racemic) [Compound 183, (±)—N-(5-Chloro-2-fluoro-4-(trifluoromethyl)phenyl)-1,9,9-trifluoro-6,7,8,9-tetrahydro-5H-5,8-epiminocyclohepta[c]pyridine-10-carboxamide]	< 500
O=C(Nc1cc(Cl)c(-c2ccc3nonc3c2)cc1F)N1C2CCC1C(F)(F)c1c2ccnc1F (racemic) [Compound 289, (±)-N-(4-(Benzo[c][1,2,5]oxadiazol-5-yl)-5-chloro-2-fluorophenyl)-1,9,9-trifluoro-6,7,8,9-tetrahydro-5H-5,8-epiminocyclohepta[c]pyridine-10-carboxamide]	< 500
O=C(Nc1cc(Cl)c(-c2ccc(OCC(F)(F)F)nc2)cc1F)N1C2CCC1C(F)(F)c1c2ccnc1F (racemic) [Compound 290, (±)-N-(5-Chloro-2-fluoro-4-(6-(2,2,2-trifluoroethoxy)pyridin-3-yl)phenyl)-1,9,9-trifluoro-6,7,8,9-tetrahydro-5H-5,8-epiminocyclohepta[c]pyridine-10-carboxamide]	< 500
O=C(Nc1cc(Cl)c(C(F)(F)F)cc1F)N1[C@H]2CC[C@@H]1c1n[nH]c(=O)cc1C2 [Compound 18, (6S,9R)-N-(5-Chloro-2-fluoro-4-(trifluoromethyl)phenyl)-3-oxo-3,5,6,7,8,9-hexahydro-2H-6,9-epiminocyclohepta[c]pyridazine-10-carboxamide]	< 500
O=C(Nc1cc(Cl)c(C(F)(F)F)cc1F)N1[C@@H]2CC[C@H]1c1n[nH]c(=O)cc1C2 [Compound 19, (6R,9S)-N-(5-Chloro-2-fluoro-4-(trifluoromethyl)phenyl)-3-oxo-3,5,6,7,8,9-hexahydro-2H-6,9-epiminocyclohepta[c]pyridazine-10-carboxamide]	< 500
O=C(Nc1cc(Cl)c(Cl)cc1F)N1[C@H]2CC[C@@H]1c1n[nH]c(=O)cc1C2 [Compound 20, (6S,9R)-N-(4,5-Dichloro-2-fluorophenyl)-3-oxo-3,5,6,7,8,9-hexahydro-2H-6,9-epiminocyclohepta[c]pyridazine-10-carboxamide]	< 500
O=C(Nc1cc(Cl)c(Cl)cc1F)N1[C@H]2CC[C@@H]1c1c[nH]c(=O)nc1C2 [Compound 22, (5R,8S)-N-(4,5-Dichloro-2-fluorophenyl)-2-oxo-3,5,6,7,8,9-hexahydro-2H-5,8-epiminocyclohepta[d]pyrimidine-10-carboxamide]	< 500
O=C(Nc1cc(Cl)c(Br)cc1F)N1[C@H]2CC[C@@H]1c1c[nH]c(=O)nc1C2 [Compound 23, (5R,8S)-N-(4-Bromo-5-chloro-2-fluorophenyl)-2-oxo-3,5,6,7,8,9-hexahydro-2H-5,8-epiminocyclohepta[d]pyrimidine-10-carboxamide]	< 500
O=C(Nc1cc(Cl)c(C(F)(F)F)cc1F)N1[C@H]2CC[C@@H]1c1c[nH]c(=O)nc1C2 [Compound 24, (5R,8S)-N-(5-Chloro-2-fluoro-4-(trifluoromethyl)phenyl)-2-oxo-3,5,6,7,8,9-hexahydro-2H-5,8-epiminocyclohepta[d]pyrimidine-10-carboxamide]	< 500

Same assay, conditions: 1321N1-hrGPR65 cells, cAMP HTRF, assay pH 7.2; read-out: hGPR65 IC50 (Activity of selected compounds according to the invention)

Structure (SMILES)	IC50 [nM]
Cn1nc2c(cc1=O)CC1CCC2N1C(=O)Nc1cc(Cl)c(Cl)cc1F (racemic) [Compound 83, (±)-N-(4,5-Dichloro-2-fluorophenyl)-2-methyl-3-oxo-3,5,6,7,8,9-hexahydro-2H-6,9-epiminocyclohepta[c]pyridazine-10-carboxamide]	500 to 5000
O=C(Nc1cc(Cl)c(C(F)(F)F)cc1F)N1C2CCC1[C@@H](O)c1c2ccnc1F (mixture of isomers) [Compound 156, (±)-(9S)—N-(5-chloro-2-fluoro-4-(trifluoromethyl)phenyl)-1-fluoro-9-hydroxy-6,7,8,9-tetrahydro-5H-5,8-epiminocyclohepta[c]pyridine-10-carboxamide]	500 to 5000
O=C(Nc1cc(Cl)c(Cl)cc1F)N1C2CCC1c1ncc(=O)[nH]c1C2 (racemic) [Compound 158, (±)—N-(4,5-Dichloro-2-fluorophenyl)-2-oxo-2,5,6,7,8,9-hexahydro-1H-5,8-epiminocyclohepta[b]pyrazine-10-carboxamide]	> 5000
O=C(Nc1cc(Cl)c(C(F)(F)F)cc1F)N1C2CC[C@@H]1c1ccnc(F)c1C2O (mixture of isomers) [Compound 204, (±)—(R)—N-(5-chloro-2-fluoro-4-(trifluoromethyl)phenyl)-1-fluoro-9-hydroxy-6,7,8,9-tetrahydro-5H-5,8-epiminocyclohepta[c]pyridine-10-carboxamide]	500 to 5000
O=C(Nc1cc(Cl)c(Cl)cc1F)N1[C@@H]2CC[C@H]1[C@@H](F)c1ccnc(F)c12 (racemic) [Compound 284, ±(5-endo)-N-(4,5-dichloro-2-fluorophenyl)-1,5-difluoro-6,7,8,9-tetrahydro-5H-6,9-epiminocyclohepta[c]pyridine-10-carboxamide]	500 to 5000
CN(C(=O)N1C2CCC1c1ccc(=O)n(C)c1C2)c1cc(Cl)c(Cl)cc1F (racemic) [Compound 288, (±)—N-(4,5-Dichloro-2-fluorophenyl)-N,1-dimethyl-2-oxo-2,5,6,7,8,9-hexahydro-1H-5,8-epiminocyclohepta[b]pyridine-10-carboxamide]	> 5000
O=C(Nc1cc(Cl)c(Cl)cc1F)N1[C@@H]2CC[C@H]1c1n[nH]c(=O)cc1C2 [Compound 21, (6R,9S)-N-(4,5-Dichloro-2-fluorophenyl)-3-oxo-3,5,6,7,8,9-hexahydro-2H-6,9-epiminocyclohepta[c]pyridazine-10-carboxamide]	500 to 5000
